The record followed here is patent publication US20230330027A1, “PHARMACEUTICAL PREPARATION” (MERCK PATENT GMBH, priority 2020, published 2023).

Data set [1] is described as follows: Particle size distribution by laser diffraction (Malvern Mastersizer 2000). The format is physicochemical. As to conditions: no unit in Table 4; d values in micrometers, volume distribution. As for the experimental part: The particle size distribution of 8-(1,3-Dimethyl-1H-pyrazol-4-yl)-1-(Sa)-(3-fluoro-5-methoxy-pyridin-4-yl)-7-methoxy-3-methyl-1,3-dihydro-imidazo[4,5-c]quinolin-2-one is measured by laser diffraction on a Malvern Mastersizer 2000 (wet method using Hydro 2000S; sample amount of 100 mg dispersed in 5 ml silicone oil; stirrer speed 2000 rpm, no sonication, measuring time of 7.5 s; obscuration of 10-15%). The d values refer to the particle size distribution in micrometers […] whereby the dl 0 value refers to the particle diameter in micrometers at which 10 percent of the volume distribution of the particles are smaller than such value, the d50 value refers to the particle diameter in micrometers at which 50 percent of the volume distribution of the particles are smaller than such value and the d90 value refers to the particle diameter in micrometers at which 90 percent of the volume distribution of the particles are smaller than such value.

Data set [2] can be described thus: Thermodynamic stability of anhydrous polymorphic forms. As to conditions: among anhydrous Forms A1, A2, A3. The format is physicochemical.
Data set [3] can be described thus: Selectivity compared to the other atropisomer and the mixture. As to conditions: compared to the (Ra) atropisomer and the unseparated compound.
For data set [4], the target named is phosphodiesterase (PDE) 2A1 (Homo sapiens, UniProt O00408). The data set can be described thus: Inhibition of PDE2A1. As to conditions: compared to the (Ra) atropisomer and the unseparated compound. The format is biochemical.
The next data set concerns the target PDE4D2 (Homo sapiens, UniProt Q08499). Nature of the data set: Inhibition of PDE4D2. The format is biochemical. As to conditions: compared to the (Ra) atropisomer and the unseparated compound.
The target in the next data set is PDE4A1A (Homo sapiens, UniProt P27815). The data set can be described thus: Inhibition of PDE4A1A. As to conditions: compared to the (Ra) atropisomer and the unseparated compound. The format is biochemical.
For the next data set, the system named is ATM pCHK2 pathway. The data set can be described thus: Inhibition of the ATM pCHK2 pathway. The format is cell-based. As to conditions: compared to the (Ra) atropisomer and the unseparated compound.
A short description of another data set: Microsomal clearance. As to conditions: compared to the (Ra) atropisomer and the unseparated compound. The format is in vitro ADME.

Chain of phosphodiesterase (PDE) 2A1 (O00408 1-920 isoform O00408-2): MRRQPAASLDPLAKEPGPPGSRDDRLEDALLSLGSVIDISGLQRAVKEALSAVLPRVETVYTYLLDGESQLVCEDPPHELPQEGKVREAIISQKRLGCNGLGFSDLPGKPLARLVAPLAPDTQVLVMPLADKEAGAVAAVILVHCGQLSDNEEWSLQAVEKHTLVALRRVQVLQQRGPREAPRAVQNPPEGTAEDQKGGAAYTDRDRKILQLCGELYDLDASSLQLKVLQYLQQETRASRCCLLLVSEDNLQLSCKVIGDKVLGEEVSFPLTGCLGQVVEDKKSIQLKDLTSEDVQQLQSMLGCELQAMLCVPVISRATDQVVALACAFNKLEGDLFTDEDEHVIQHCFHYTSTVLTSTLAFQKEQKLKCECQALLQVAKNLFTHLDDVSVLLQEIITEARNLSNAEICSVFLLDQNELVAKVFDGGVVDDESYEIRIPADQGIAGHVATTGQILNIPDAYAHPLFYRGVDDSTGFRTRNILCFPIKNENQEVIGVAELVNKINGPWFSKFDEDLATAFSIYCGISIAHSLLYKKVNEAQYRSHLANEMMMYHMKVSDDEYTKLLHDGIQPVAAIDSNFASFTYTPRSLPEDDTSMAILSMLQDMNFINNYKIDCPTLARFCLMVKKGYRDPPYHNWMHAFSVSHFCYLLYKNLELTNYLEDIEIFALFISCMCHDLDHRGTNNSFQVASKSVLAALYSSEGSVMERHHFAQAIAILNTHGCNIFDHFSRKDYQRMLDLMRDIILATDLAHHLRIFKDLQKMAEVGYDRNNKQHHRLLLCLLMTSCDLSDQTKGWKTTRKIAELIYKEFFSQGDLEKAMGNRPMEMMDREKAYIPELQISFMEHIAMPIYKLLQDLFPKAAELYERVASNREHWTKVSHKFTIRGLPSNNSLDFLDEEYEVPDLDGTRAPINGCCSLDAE
Chain of PDE4A1A (P27815 1-647 isoform P27815-4): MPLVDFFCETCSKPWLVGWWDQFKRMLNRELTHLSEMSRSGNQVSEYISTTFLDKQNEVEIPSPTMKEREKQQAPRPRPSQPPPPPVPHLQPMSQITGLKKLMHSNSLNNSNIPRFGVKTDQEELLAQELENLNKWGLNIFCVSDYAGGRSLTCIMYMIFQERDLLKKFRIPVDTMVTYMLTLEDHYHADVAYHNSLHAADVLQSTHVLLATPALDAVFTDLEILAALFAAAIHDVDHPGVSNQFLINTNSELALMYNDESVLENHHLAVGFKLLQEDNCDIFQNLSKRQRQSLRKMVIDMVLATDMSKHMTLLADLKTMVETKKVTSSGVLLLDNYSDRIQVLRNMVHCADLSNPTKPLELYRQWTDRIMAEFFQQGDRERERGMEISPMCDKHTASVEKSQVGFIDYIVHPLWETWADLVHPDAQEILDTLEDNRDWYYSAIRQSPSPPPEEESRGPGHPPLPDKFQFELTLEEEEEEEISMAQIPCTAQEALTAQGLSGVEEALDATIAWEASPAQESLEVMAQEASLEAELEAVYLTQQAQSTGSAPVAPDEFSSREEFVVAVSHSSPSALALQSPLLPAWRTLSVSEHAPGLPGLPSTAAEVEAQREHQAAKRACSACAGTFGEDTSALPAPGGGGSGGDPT
Chain of PDE4D2 (Q08499 303-809 limits assumed): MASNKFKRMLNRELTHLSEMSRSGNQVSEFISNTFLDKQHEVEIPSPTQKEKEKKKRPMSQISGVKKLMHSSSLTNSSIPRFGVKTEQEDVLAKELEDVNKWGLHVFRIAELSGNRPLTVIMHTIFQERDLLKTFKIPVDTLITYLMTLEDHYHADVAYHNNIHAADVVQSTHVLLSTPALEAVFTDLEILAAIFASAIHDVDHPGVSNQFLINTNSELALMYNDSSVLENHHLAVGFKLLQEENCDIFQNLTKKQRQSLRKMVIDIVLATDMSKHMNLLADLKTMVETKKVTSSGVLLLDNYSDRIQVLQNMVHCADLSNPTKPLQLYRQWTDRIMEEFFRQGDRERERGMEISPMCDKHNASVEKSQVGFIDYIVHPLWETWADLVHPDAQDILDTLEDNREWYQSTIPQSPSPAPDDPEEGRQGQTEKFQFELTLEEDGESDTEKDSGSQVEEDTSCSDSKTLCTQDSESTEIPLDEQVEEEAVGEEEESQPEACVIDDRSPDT

In data set [1], `COc1cc2ncc3c(c2cc1-c1cn(C)nc1C)n(-c1c(F)cncc1OC)c(=O)n3C` (atropisomer, axis not shown; (Sa)) [Compound 1 Anhydrous Form A2 OPT, 8-(1,3-Dimethyl-1H-pyrazol-4-yl)-1-(Sa)-(3-fluoro-5-methoxy-pyridin-4-yl)-7-methoxy-3-methyl-1,3-dihydro-imidazo[4,5-c]quinolin-2-one] yielded a Dv10 of 19 µm, a Dv50 of 64 µm and a Dv90 of 202 µm.

In the case of `COc1cc2ncc3c(c2cc1-c1cn(C)nc1C)n(-c1c(F)cncc1OC)c(=O)n3C` (atropisomer, axis not shown; (Sa)) [Compound 1 Anhydrous Form A2, 8-(1,3-Dimethyl-1H-pyrazol-4-yl)-1-(Sa)-(3-fluoro-5-methoxy-pyridin-4-yl)-7-methoxy-3-methyl-1,3-dihydro-imidazo[4,5-c]quinolin-2-one], in data set [2], the “Thermodynamic stability of the solid form” value was “thermodynamically most stable anhydrous form”. In data set [1], this compound registered a Dv10 of 9 µm, a Dv50 of 63 µm and a Dv90 of 599 µm.

As to `COc1cc2ncc3c(c2cc1-c1cn(C)nc1C)n(-c1c(F)cncc1OC)c(=O)n3C` (atropisomer, axis not shown; (Sa)) [Compound 1, 8-(1,3-Dimethyl-1H-pyrazol-4-yl)-1-(Sa)-(3-fluoro-5-methoxy-pyridin-4-yl)-7-methoxy-3-methyl-1,3-dihydro-imidazo[4,5-c]quinolin-2-one], the Selectivity result in data set [3] was “better selectivity”. Besides, the “Inhibition of phosphodiesterase (PDE) 2A1” value in data set [4] is on record as “lowest inhibition”. In addition, the “Inhibition of PDE4D2” value on PDE4D2 was “lowest inhibition”. Further, the “Inhibition of PDE4A1A” value at PDE4A1A was “lowest inhibition”. In addition, the “Inhibition of the ATM pCHK2 pathway” value in the data set with ATM pCHK2 pathway is reported as “at lower concentrations”. Moreover, in the data set “Microsomal clearance”, the Microsomal clearance values result is on record as “best microsomal clearance values”.
